Assay results published in US4990499A, “Anti-herpes simplex virus activity of 5-alkoxymethyl-2'-deoxycytidimes and their 5-monophosphates” (priority 1989, dated 1991).
Entries after “also recorded” stand apart in the source; their conditions may differ.

Assays:
HSV-1 DNA Polymerase [1] = molecular target: T1, HSV-1 DNA Polymerase (Human herpesvirus 1, UniProt P04293); experiment: Kinetic analysis / inhibition of HSV-1 DNA polymerase; format: biochemical
Procedure: (§1) The inhibition of HSV-1 and human DNA polymerase alpha by MMdCTP was studied and the results shown graphically in FIG. 16. Assay conditions were specific for each enzyme and each assay was performed in triplicate.

[2] = molecular target: T2, human DNA polymerase alpha (Homo sapiens, UniProt P09884); experiment: In vitro DNA synthesis by human DNA polymerase alpha ([3H]dAMP incorporation); format: biochemical
T2 sequence (P09884 1-1462): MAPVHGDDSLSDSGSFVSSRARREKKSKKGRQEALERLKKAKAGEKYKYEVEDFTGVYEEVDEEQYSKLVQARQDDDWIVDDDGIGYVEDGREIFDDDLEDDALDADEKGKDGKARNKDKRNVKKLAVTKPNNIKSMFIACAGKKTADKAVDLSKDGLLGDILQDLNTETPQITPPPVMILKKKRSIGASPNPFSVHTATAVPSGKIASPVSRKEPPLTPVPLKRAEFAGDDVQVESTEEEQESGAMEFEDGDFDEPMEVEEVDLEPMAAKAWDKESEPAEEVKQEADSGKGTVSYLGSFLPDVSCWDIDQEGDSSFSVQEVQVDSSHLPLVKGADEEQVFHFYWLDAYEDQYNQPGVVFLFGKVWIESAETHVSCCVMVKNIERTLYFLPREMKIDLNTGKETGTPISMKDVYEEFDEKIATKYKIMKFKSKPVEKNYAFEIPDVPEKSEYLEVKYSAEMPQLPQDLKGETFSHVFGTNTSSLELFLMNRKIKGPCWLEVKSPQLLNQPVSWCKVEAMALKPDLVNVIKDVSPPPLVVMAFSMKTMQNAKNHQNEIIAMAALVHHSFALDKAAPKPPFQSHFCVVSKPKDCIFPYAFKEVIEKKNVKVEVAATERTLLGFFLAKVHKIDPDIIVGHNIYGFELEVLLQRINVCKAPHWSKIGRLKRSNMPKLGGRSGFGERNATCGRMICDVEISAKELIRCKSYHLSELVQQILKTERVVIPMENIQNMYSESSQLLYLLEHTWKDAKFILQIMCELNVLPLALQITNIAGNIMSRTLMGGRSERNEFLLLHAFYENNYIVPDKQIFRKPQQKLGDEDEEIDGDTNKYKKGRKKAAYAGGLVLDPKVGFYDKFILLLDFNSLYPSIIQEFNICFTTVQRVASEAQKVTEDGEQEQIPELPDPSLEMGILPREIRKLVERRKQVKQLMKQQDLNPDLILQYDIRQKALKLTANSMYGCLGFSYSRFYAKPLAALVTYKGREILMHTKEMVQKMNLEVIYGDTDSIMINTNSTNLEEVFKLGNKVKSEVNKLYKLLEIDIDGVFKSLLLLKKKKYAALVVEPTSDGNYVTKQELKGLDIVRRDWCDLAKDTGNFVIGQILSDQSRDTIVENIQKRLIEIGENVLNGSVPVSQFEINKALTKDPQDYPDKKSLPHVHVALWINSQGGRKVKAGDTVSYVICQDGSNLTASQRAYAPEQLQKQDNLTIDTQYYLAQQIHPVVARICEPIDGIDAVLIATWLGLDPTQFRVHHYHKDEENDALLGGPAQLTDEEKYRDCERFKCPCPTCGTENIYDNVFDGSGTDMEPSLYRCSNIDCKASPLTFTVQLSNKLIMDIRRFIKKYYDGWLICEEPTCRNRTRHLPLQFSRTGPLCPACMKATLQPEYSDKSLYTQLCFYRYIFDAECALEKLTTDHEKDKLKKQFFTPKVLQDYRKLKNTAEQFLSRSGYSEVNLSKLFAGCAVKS
Procedure: A comparison of in vitro DNA synthesis by viral and cellular DNA polymerases with MMdCTP as an alternative substrate. The results are shown graphically in FIG. 14 and compare HSV-1 DNA polymerase and human DNA polymerase alpha activity.
(§2) The number of pmoles of [^3 H] dAMP incorporated into control samples (`O`MMdCTP) was subtracted from pmoles of test samples. Other nucleotides,dATP, dTTP and dGTP were in excess (10 μm). Each assay was performed in triplicate.
(§3) ^+ unlabeled dNTP concentration (10 μM).
(§4) ^++ 0.2 μM of [^3 H]dATP was used in each assay.

HSV-1 DNA Polymerase [3] = molecular target: T1, HSV-1 DNA Polymerase; experiment: In vitro DNA synthesis by HSV-1 DNA polymerase ([3H]dAMP incorporation); format: biochemical, Herpes simplex virus type 1
Procedure: The relative in vitro DNA synthesis by HSV-1 DNA Polymerase using dCTP or MMdCTP as the rate limiting substrate was determined. The synthesis was followed by assaying an incorporation of tritium labelled dAMP.
+ unlabelled dNTP concentration 10 μM
++ Radio labelled [^3 H]dAMP conc 0.2 μM
*One hundred percent activity represents 27355 cpm of [^3 H]dAMP
as §2, §3, §4

E. coli DNA Polymerase 1 = E. coli DNA Polymerase 1 (Escherichia coli, UniProt P00582); experiment: In vitro DNA synthesis by E. coli DNA polymerase 1 ([3H]dAMP incorporation); format: biochemical
Procedure: ^a Enzymatic assays were carried out with 1 unit of Sigma E. coli DNA
Polymerase 1. dTTP, dGTP and [^3 H] dATP were non limiting (5 μM).
^b Values obtained are net after subtracting "0" samples which did no
^c Amount of NMeMMdCTP used with each concentration of dCTP was 0.625

[4] = system: Nc1ccn([C@H]2C[C@H](O)[C@@H](COP(=O)(O)OP(=O)(O)OP(=O)(O)O)O2)c(=O)n1; experiment: Kinetic analysis / inhibition of HSV-1 DNA polymerase; format: biochemical; conditions: other: dCTP
Procedure: as §1

HSV-1, KOS [5] = experiment: HSV-1 KOS infectivity (virus yield) in Vero cells after removal of drugs; format: cell-based, Herpes simplex virus type 1; conditions: up to 2120 μM (highest concentration tested)
Procedure: Vero cells were infected with HSV-1, KOS strain and then samples of the infected cells were treated with MMdCyd in various quantities and with MMdCyd in various quantities together with 530 μM of H4 dUrd. Cells were washed twice with 0.4 ml of MEM to remove residual drug, overlaid with growth medium and incubated for 72 h. The virus was harvested by two cycles of freezing and thawing. The culture fluid from each treatment was pooled and assayed for virus yield.
^b H4 dUrd 530 μM (125 μg/ml) was added along with MMdCyd.

[6] = system: Deoxynucleoside Triphosphate (dNTP) Pools in Vero Cells Infected with Herpes Simplex Virus Type 1; experiment: Deoxynucleoside triphosphate (dNTP) pools in HSV-1 infected Vero cells; format: cell-based
Procedure: Example 9 was repeated, except that the Vero cells subjected to the treatment had all been infected with HSV-1 KOS strain prior to the treatment.
^a Cells were infected with 10 PFU/cell of HSV1 KOS strain for one
hour. Treatments were given for seven hours.
^a Cells were infected with 10 PFU/cell of HSV1, KOS strain after
^b H4 dUrd in MEM was added immediately after adsorption and
^c H4 dUrd in MEM was added immediately after adsorption and
(§5) Vero cells and HSV-infected Vero cells were treated with dGUO and dGUO and H4 dUrd. The cells were then assayed for the presence of deoxynucleoside triphosphates. Untreated Vero cells were also assayed for the presence of deoxynucleoside triphophate to provide a control.
^c Cells were infected with 10 PFU/cell of HSV1 strain KOS for one

HSV-1, KOS [7] = experiment: HSV-1 KOS infectivity in Vero cells prior to washing of drugs; format: cell-based, Herpes simplex virus type 1; conditions: at less than 2120 μM (500 μg/ml)
Procedure: Vero cells were infected with HSV-1, KOS strain and then treated with MMdCyd in various quantities, and also with MMdCyd in various quantities together with a constant amount of H4 dUrd. The virus infectivity was observed and the results are given in Table 5 and are shown graphically in FIG. 3.
^a Virus infectivity was scored using following parameters: rounding
of cells, plaque formation and loss of monolayer structure.
^b Concentration of H4 dUrd used was 530 μM (125 μg/ml).

in vitro = conditions: monkey, vero cells
Procedure: The survival and viability of Vero cells grown in the presence of 2'-deoxyguanosine, H4 dUrd and deoxyguanosine+H4 dUrd was determined.

[8] = system: Deoxynucleoside Triphosphate (dNTP) Pools in Uninfected Vero Cells; experiment: Deoxynucleoside triphosphate (dNTP) pools in uninfected (mock-infected) Vero cells; format: cell-based; conditions: Table 7, uninfected Vero cells, treatment 7 hours, ± S.E.
Procedure: Vero cells were treated with MMdCyd, H4 dUrd and MMdCyd+H4 dUrd. The cells were then assayed for the presence of deoxynucleoside triphosphates. Untreated Vero cells were also assayed for the presence of deoxynucleoside triphosphates, to provide a control.
^a Cells were mock infected for one hour. Different treatments were
^b Values are means of at least two assays of triplicate cell
as §5
Vero cells were treated with N-methyl-MMdCyd. The cells were then assayed for dNTP pools.

[9] = Table 8, HSV-1 KOS infected Vero cells, 10 PFU/cell, treatment 7 hours, ± S.E.
[10] = Table 9, HSV-1 KOS infected, H4 dUrd pre-incubated 2 hours then removed, fresh MEM or MMdCyd

T1 sequence (P04293 whole entry): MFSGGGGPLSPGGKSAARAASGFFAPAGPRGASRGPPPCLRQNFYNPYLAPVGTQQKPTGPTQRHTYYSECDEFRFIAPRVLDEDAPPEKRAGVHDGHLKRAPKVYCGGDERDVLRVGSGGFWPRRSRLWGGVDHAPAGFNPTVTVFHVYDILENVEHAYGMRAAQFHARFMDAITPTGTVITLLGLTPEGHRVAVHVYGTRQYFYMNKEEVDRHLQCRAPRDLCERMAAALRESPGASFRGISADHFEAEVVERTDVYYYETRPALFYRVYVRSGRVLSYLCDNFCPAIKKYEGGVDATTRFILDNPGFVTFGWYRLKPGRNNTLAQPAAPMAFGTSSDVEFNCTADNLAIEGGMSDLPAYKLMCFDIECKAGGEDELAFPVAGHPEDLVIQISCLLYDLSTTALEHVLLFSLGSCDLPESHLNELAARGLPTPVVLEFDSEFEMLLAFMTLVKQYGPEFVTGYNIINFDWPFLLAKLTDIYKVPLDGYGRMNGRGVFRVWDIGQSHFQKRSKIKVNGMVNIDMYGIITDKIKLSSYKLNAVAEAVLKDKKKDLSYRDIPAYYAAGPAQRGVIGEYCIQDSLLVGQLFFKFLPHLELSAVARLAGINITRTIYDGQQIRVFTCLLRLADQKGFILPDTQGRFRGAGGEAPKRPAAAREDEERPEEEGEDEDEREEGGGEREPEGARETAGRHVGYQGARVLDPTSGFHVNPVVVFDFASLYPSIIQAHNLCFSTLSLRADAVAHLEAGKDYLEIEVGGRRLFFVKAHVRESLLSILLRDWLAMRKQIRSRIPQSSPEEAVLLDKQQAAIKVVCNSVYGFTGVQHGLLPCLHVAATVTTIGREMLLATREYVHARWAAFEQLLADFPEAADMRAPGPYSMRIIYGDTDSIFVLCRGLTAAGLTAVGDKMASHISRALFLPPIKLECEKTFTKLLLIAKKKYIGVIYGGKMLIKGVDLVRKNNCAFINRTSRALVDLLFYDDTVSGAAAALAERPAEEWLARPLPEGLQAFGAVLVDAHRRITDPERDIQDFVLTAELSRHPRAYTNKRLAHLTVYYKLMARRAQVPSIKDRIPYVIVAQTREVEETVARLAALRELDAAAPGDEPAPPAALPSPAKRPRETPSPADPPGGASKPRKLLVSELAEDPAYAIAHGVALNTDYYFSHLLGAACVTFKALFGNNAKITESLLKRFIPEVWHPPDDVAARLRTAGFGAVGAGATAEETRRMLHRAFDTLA
E. coli DNA Polymerase 1, sequence (P00582 whole entry): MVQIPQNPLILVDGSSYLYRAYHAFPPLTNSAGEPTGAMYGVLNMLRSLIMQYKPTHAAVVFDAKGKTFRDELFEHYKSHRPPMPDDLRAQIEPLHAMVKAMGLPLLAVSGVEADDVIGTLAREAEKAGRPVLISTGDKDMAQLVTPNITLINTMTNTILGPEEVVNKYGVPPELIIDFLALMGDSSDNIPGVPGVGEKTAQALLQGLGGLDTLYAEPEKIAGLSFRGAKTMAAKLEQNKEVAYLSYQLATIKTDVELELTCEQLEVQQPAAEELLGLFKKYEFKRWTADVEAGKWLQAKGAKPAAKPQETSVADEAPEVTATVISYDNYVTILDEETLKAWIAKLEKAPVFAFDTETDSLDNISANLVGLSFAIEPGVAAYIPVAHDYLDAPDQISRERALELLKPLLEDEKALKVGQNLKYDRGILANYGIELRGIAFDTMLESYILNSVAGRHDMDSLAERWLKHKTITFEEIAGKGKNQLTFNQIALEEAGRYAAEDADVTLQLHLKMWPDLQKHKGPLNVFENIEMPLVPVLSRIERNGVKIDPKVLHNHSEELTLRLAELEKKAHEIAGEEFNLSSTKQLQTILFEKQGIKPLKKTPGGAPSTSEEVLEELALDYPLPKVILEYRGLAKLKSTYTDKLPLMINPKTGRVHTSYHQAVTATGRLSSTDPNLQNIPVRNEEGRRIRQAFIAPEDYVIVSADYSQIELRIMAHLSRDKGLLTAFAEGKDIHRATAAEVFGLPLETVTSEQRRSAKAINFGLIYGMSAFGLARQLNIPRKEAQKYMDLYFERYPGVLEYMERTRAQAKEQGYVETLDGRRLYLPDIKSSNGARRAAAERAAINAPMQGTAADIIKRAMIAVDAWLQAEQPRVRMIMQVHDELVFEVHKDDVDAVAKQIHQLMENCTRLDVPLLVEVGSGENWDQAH

In the case of `COCc1cn([C@H]2C[C@H](O)[C@@H](COP(=O)(O)OP(=O)(O)OP(=O)(O)O)O2)c(=O)nc1N` [MMdCTP, 5-methoxymethyl-2'-deoxycytidine triphosphate], the Ki (HSV-1 DNA Polymerase [1]) is reported as 380 nM, the “inhibition of HSV-1 versus human DNA polymerase alpha” value (HSV-1 DNA Polymerase [1]; FIG. 16, HSV-1 compared with human DNA polymerase alpha) is reported as “clear difference in effect” and the Km/Ki (HSV-1 DNA Polymerase [1]; Km of dCTP / Ki of MMdCTP) is reported as 0.4. For the same compound, the “utilization as alternative substrate ([^3 H] dAMP incorporation)” value ([2]; human DNA polymerase alpha, FIG. 14) was “little used”, the “utilization as alternative substrate ([^3 H] dAMP incorporation)” value (HSV-1 DNA Polymerase [3]; HSV-1 DNA polymerase, FIG. 14) was “readily utilized” and the “preference as substrate versus dCTP” value (HSV-1 DNA Polymerase [3]; HSV-1 induced DNA polymerase) was “preferred as a substrate to dCTP”.
For `CNc1nc(=O)n([C@H]2C[C@H](O)[C@@H](COP(=O)(O)OP(=O)(O)OP(=O)(O)O)O2)cc1COC` [N-MeMMdCTP], the “incorporation into DNA / substrate” value ([2]; Human α-DNA polymerase) was “not incorporated into DNA”, the “incorporation into DNA / substrate” value (HSV-1 DNA Polymerase [3]; HSV-1 DNA polymerase) was “not incorporated into DNA” and the “interference with incorporation of dCTP into DNA” value (E. coli DNA Polymerase 1; E. coli DNA polymerase) was “did not interfere with incorporation of dCTP into DNA”. For the same compound, the “substrate for DNA polymerase” value (E. coli DNA Polymerase 1; E. coli DNA polymerase) was “did not serve as a substrate”, the “cpm [^3 H]dAMP incorporated” value (E. coli DNA Polymerase 1; nucleotide 0.039 μM (mixture: dCTP at this concentration + N-MeMMdCTP 0.625 μM)) was -18 cpm and the “cpm [^3 H]dAMP incorporated” value (E. coli DNA Polymerase 1; nucleotide 0.078 μM (mixture: dCTP at this concentration + N-MeMMdCTP 0.625 μM)) was -7 cpm. The “cpm [^3 H]dAMP incorporated” value (E. coli DNA Polymerase 1; nucleotide 0.156 μM (mixture: dCTP at this concentration + N-MeMMdCTP 0.625 μM)) was 3 cpm, the “cpm [^3 H]dAMP incorporated” value (E. coli DNA Polymerase 1; nucleotide 0.312 μM (mixture: dCTP at this concentration + N-MeMMdCTP 0.625 μM)) was -9 cpm and the “cpm [^3 H]dAMP incorporated” value (E. coli DNA Polymerase 1; nucleotide 0.625 μM (mixture: dCTP at this concentration + N-MeMMdCTP 0.625 μM)) was 3 cpm. For the same compound, the “cpm [^3 H]dAMP incorporated” value (E. coli DNA Polymerase 1; nucleotide 1.25 μM (mixture: dCTP at this concentration + N-MeMMdCTP 0.625 μM)) was -20 cpm, the “cpm [^3 H]dAMP incorporated” value (E. coli DNA Polymerase 1; nucleotide 2.50 μM (mixture: dCTP at this concentration + N-MeMMdCTP 0.625 μM)) was -17 cpm and the “cpm [^3 H]dAMP incorporated” value (E. coli DNA Polymerase 1; nucleotide 5.0 μM (mixture: dCTP at this concentration + N-MeMMdCTP 0.625 μM)) was -16 cpm.
Compound “HSV-1 DNA Polymerase (Human alphaherpesvirus 1 strain 17)” has a Km [4] of 0.15 µM.
With `O=C1NC(O)CCN1[C@H]1C[C@H](O)[C@@H](CO)O1` (stereo partly shown) [H4 dUrd, tetrahydro-2'-deoxyuridine] the “antiviral activity of H4 dUrd” value (HSV-1, KOS [5]) was “did not exhibit antiviral activity; also recorded: no antiviral activity”, the dATP pool [6, 9] was 94.7 ± 2.06 .rho.moles/10^6 cells and the dCTP pool [6, 9] was 326 ± 12.6 .rho.moles/10^6 cells. For the same compound, the dGTP pool [6, 9] was 101.3 ± 2.28 .rho.moles/10^6 cells, the dTTP pool [6, 9] was 0.5 ± 0.34 .rho.moles/10^6 cells and the dATP pool [6, 10] was 119.4 ± 3.1 .rho.moles/10^6 cells. The dCTP pool [6, 10] was 312 ± 10.1 .rho.moles/10^6 cells, the dGTP pool [6, 10] was 141 ± 2.6 .rho.moles/10^6 cells and the dTTP pool [6, 10] was 2 ± 0.41 .rho.moles/10^6 cells. For the same compound, the “antiviral activity of H4 dUrd alone” value (HSV-1, KOS [7]) was “did not exhibit antiviral activity”, the viability at 1000 µM (in vitro) was 100% and the dATP pool [8] was 17.6 ± 1.28 .rho.moles/10^6 cells. For the same compound, the dCTP pool [8] was 30.8 ± 1.20 .rho.moles/10^6 cells, the dGTP pool [8] was 32 ± 1.3 .rho.moles/10^6 cells and the dTTP pool [8] was 27.5 ± 1.25 .rho.moles/10^6 cells.
